{"source": "patent US20190255040A1", "about": "“COMPOSITION AND METHOD FOR TOPICAL JS-K AS THERAPY FOR ACTINIC KERATOSIS” (JSK THERAPEUTICS, INC, priority 2018, published 2019)", "key": {"[1]": {"test_system": "human squamous skin carcinoma Cells (HatCat cells)", "assay": "Suppression of the growth in culture of human squamous skin carcinoma cells", "type": "cell-based", "settings": "growth over a two-day period (FIG. 1), read-out: IC50 for suppressing growth of human squamous skin carcinoma cells", "procedure": "FIG. 1 is a scatter plot illustrating the growth of human squamous skin carcinoma cells (HatCat 5K-Cells [10 μM]) over a two-day period;\nReferring to FIG. 1, JS-K at 12 mg/mL in […] of acetone was active in suppressing the growth in culture of human squamous skin carcinoma Cells (HatCat cells) with IC50 concentrations <1000 nM, compared to no effect from dimethylsulfoxide (DMSO) or P1223 pluronic micellesAfd."}, "[2]": {"test_system": "UV-induced skin damage in SKH1 mice", "assay": "Animal efficacy for UV damage: UVB-exposed SKH1 mice, topical treatment, skin histology", "type": "in vivo", "procedure": "Eight week-old female SKH1 mice were used. There were 5 mice in the control (no treatment, no UV) group and 10 mice in each treatment group. Treated mice all received one exposure of 600 Joules/m2 of UVB.\nImmediately after UVB treatment, mice in each group were treated as follows: 200 uL of acetone only; JS-K at a concentration of 12 mg/mL in 200 uL of acetone; JS-K at a concentration of 6 mg/mL in 200 uL of acetone. Treatments were started immediately after UVB exposure and given twice (8 hours apart) on Day 1 and Day 2. On Day 3, mice were sacrificed and skin collected for histologic analysis.\nH&E staining was used (FIG. 2A) to evaluate the count of Sunburn Cells, which are keratinocytes undergoing UV-induced apoptosis. […] The differences with controls were statistically significant for the higher dose of JS-K (12 mg/mL).\n8-OG is a marker of oxydative damage."}}, "data": [{"smiles": "CCOC(=O)N1CCN(/[N+]([O-])=N/Oc2ccc([N+](=O)[O-])cc2[N+](=O)[O-])CC1", "note": "[JS-K, O2-(2,4-dinitrophenyl)1-[(4-ethoxycarbonyl)piperazin-1-yI]diazen-1-ium-1,2-diolate]", "values": [{"measurement": "IC50", "setting": "[1]", "result": "< 1", "unit": "µM"}, {"measurement": "count of Sunburn Cells (keratinocytes undergoing UV-induced apoptosis), H&E staining", "setting": "[2]; 600 Joules/m2 UVB, JS-K 6 or 12 mg/mL in 200 uL acetone topically twice daily Day 1-2, skin Day 3, significant only for 12 mg/mL", "result": "moderate decrease in the number of Sunburn Cells with a dose effect"}, {"measurement": "percent of cells positive for 8-oxoguanine (8-OG), immunohistochemistry", "setting": "[2]; 600 Joules/m2 UVB, JS-K 6 or 12 mg/mL in 200 uL acetone twice daily Day 1-2, dose effect, significant for both doses", "result": "fewer cells from the mice treated with JS-K were positive for 8-OG"}, {"measurement": "epidermal thickness of UV-exposed skin", "setting": "[2]; 600 Joules/m2 UVB, JS-K 6 or 12 mg/mL, 12 mg/mL markedly greater effect than 6 mg/mL", "result": "dose dependent JS-K effect on epidermal thickness"}, {"measurement": "toxicity, skin irritation, skin ulceration or infection with the treatments", "setting": "[2]; topical JS-K 6 or 12 mg/mL in 200 uL acetone twice daily Day 1-2", "result": "no evidence of toxicity, skin irritation, skin ulceration, or infection"}]}]}
